In patent EP1977645A1, “Insecticidal derivates of substituted phenylalkylamines” (priority 2007, dated 2008) one finds logP data, which are given here for one molecule.

The nature of the series: log P determination (acidic). Format: physicochemical.

A word on the logP: it is the decadic logarithm of the partition coefficient of the neutral form, usually between octanol and water. Low values mean a more hydrophilic compound, high ones a more lipophilic compound. For `CNC(=S)N1CCO/C1=N\[C@@H](C)c1ccccc1F` [compound 3, (2Z)-2-{[(1S)-1-(2-fluorophenyl)ethyl]imino}-N-methyl-1,3-oxazolidine-3-carbothioamide], the logP is 3.18.
